“Also recorded” adds a separate entry of the source.
Experiments:
[1] = test system: human dermal fibroblasts; test: LDH cytotoxicity assay in human dermal fibroblasts exposed to cytotoxic agents; format: cell-based; set-up: key to Protects from cytotoxicity: P = active; U = useful; conditions: for Protects from cytotoxicity: summary of peptide uses
Procedure: Dose Response Analysis of Peptide 3A • Human dermal fibroblasts (Fb, Cascade Biologics, OR) were cultured to 80% confluence • 2 ml CHX (0.002%) in basal medium ±1 μg/ml Tb4 or 1.0, 0.1, 0.01, or 0.001 μg/ml peptide 3A was added to Fb for 1, 2, 3, or 4 hours • 100 μl culture medium (n=4) was added to 100 μl LDH reagent and incubated at room temperature for 20 minutes • OD500 nm was read and averages ±SEM were calculated • Data was analyzed with probability of p≦0.05

[2] = test system: human dermal Fb; test: CHX-induced apoptosis (APOPercentage dye) in human dermal Fb; format: cell-based; set-up: key to Inhibits apoptosis: P = active; U = useful; conditions: for Protection of dermal Fb against CHX-induced apoptosis: 1 μg/ml, 0.002% CHX for 2 hours; for Inhibits apoptosis: summary of peptide uses
Procedure: Effect of Tb4 and Peptide 3A on CHX-induced apoptosis • Human dermal Fb were cultured to 80% confluence • Fb were treated with 0.002% CHX+1 μg/ml Tb4 or peptide 3A, 4A or 6A for 1.5 hours • APOPercentage “dye” was added to the Fb cultures at a 1:50 dilution for an additional 30 minutes • Excess dye was washed from the cells, and digital images were captured. Cells dyed red were apoptotic • Adobe Photoshop was used to calculate the number of red pixels in six digitized images for each treatment • Statistical analysis was done using the t-test

[3] = test system: human gingival fibroblasts; test: CHX-induced cytotoxicity in human gingival fibroblasts; format: cell-based
[4] = test system: human gingival fibroblasts; test: CHX-induced apoptosis in human gingival fibroblasts; format: cell-based; conditions: 0.002% CHX for 2 hours
[5] = test system: dermal Fb; test: TNF-a-stimulated IL-8 secretion ELISA, dermal fibroblasts; format: cell-based, human; conditions: 1 μg/ml, 10 ng/ml TNF-a
Procedure: (§1) Analysis of IL-8 Secretion • Human corneal epithelial cells or dermal Fb were cultured to 80% confluence • Cells were pre-treated with 1 μg/ml Tb4 or peptides for one hour • Cells were stimulated with 10 ng/ml TNF-a in the presence or absence of Tb4 or peptides • Culture medium was analyzed for secreted IL-8 by ELISA (n=3, experiments repeated twice) • Data was analyzed using the t-test

[6] = test system: TNF-a-stimulated IL8 secretion; test: Suppression of inflammation (summary table; IL-8 secretion); format: cell-based, human; set-up: key: P = active; U = useful; conditions: summary of peptide uses
Procedure: as §1

[7] = test system: neurite outgrowth; test: Promotion of neurite outgrowth (summary table); set-up: key: P = active; U = useful; conditions: summary of peptide uses
[8] = test system: neuron survival; test: Promotion of neuron survival (summary table); set-up: key: P = active; U = useful; conditions: summary of peptide uses
[9] = test system: L1; test: Stimulation of L1 production (summary table); set-up: key: P = active; U = useful; conditions: summary of peptide uses
[10] = test system: tissue damage caused by UV radiation; test: UV radiation tissue damage (summary table); set-up: key: P = active; U = useful; conditions: summary of peptide uses
[11] = test system: human dermal fibroblasts; test: Elastin secretion, colorimetric assay; format: cell-based; set-up: key to Stimulates Elastin: P = active; U = useful
Procedure: Effect of Tb4 and peptides on elastin secretion • Human dermal fibroblasts (Fb) were cultured to 80% confluence • Cells were treated with 1 μg/ml Tb4 or peptides for 24, 48, or 72 hours. Cells were treated once/day. • Culture supernatants (n=3, experiments repeated 6 times) were assayed for elastin secretion using a colorimetric assay • Data was analyzed using the t-test

[12] = test system: Human corneal epithelial cells; test: TNF-a-stimulated IL-8 secretion ELISA, corneal epithelial cells; format: cell-based; conditions: 1 μg/ml, 10 ng/ml TNF-a
Procedure: as §1

[13] = test system: p65 subunit of NFkB in human corneal epithelial cells; test: NFkB nuclear translocation; format: cell-based; set-up: key: P = active; U = useful; conditions: summary of peptide uses
Procedure: Analysis of NFkB Nuclear Translocation • Human corneal epithelial cells were cultured to 80% confluence • Cells were pre-treated with 1 μg/ml Tb4 or peptide 4A or 6A for one hour • Cells were stimulated with 10 ng/ml TNF-a in the presence or absence of Tb4 or peptides for 15 minutes • Cells were fixed and labeled with antibodies to the p65 subunit of NFkB

[14] = test system: cell migration; test: Stimulation of migration (summary table); format: cell-based; set-up: key: P = active; U = useful; conditions: summary of peptide uses
[15] = test system: T-lymphocyte; test: Impaired T-lymphocyte blastogenic response (summary table); set-up: key: P = active; U = useful; conditions: summary of peptide uses
[16] = 1 μg/ml, 0.002% CHX, 1, 2, or 3 hours exposure
[17] = 1 μg/ml, 0.002% CHX, 2 hour exposure

| Substance | Protection of Fb against the cytotoxic effects of CHX (LDH) [1, 16] | Protection of Fb against the cytotoxic effects of CHX (LDH) [1, 17] | Protects from cytotoxicity [1] | Protection of dermal Fb against CHX-induced apoptosis [2] | Inhibits apoptosis [2] | Protection of gingival Fb against CHX-induced apoptosis [4] | Suppression of TNF-a-stimulated IL8 secretion [5] | Suppresses inflammation [6] | Promotes neurite outgrowth [7] | Promotes neuron survival [8] | Stimulates L1 production [9] | Inhibits tissue damage caused by UV radiation [10] | Protects tissue from UV radiation damage [10] | Suppression of TNF-a-stimulated IL8 secretion [12] | also measured |
| --- | --- | --- | --- | --- | --- | --- | --- | --- | --- | --- | --- | --- | --- | --- | --- |
| H-SDKPDMAEIEKFDKS-OH [Peptide 3A] | protect | protect | P | protect; also recorded: can inhibit | P | protect; also recorded: can inhibit | suppress | P | U | U | U | U | U |  | Protection of Fb against the cytotoxic effects of CHX (LDH), dose response analysis ([1]; 1.0 μg/ml peptide, 0.002% CHX, 2 hours): protects; Protection of Fb against the cytotoxic effects of CHX (LDH) ([1]; 0.002% and 0.005% CHX, 2 hours exposure): protects; Protection of Fb against the cytotoxic effects of benzalkonium chloride (LDH) ([1]; 0.01% benzalkonium chloride): protects; Protection of Fb against the cytotoxic effects of hydrogen peroxide (LDH) ([1]; 1% hydrogen peroxide): protects; Protection of Fb against the cytotoxic effects of ethanol (LDH) ([1]; 10% ethanol): does not protect; Inhibition of chlorhexidine digluconate, hydrogen peroxide, and benzalkonium chloride-induced cytotoxicity ([1]; cultured human dermal fibroblasts, up to 4 hours exposure): can inhibit; Protection of gingival Fb against cytotoxicity induced by CHX ([3]; 0.002% CHX): protects; Inhibition of chlorhexidine digluconate and Peridex induced cytotoxicity ([3]; cultured human gingival fibroblasts, Peridex diluted to 0.002% CHX): can inhibit |
| Thymosin β4 [Tb4, reference compound] | protect | protect | P | protect | P | protect | suppress | P | P | P | P | P | P | suppress | Secretion of elastin ([11]; dermal Fb, 1 μg/ml once/day, 24, 48, or 72 hours): stimulate; Stimulates Elastin ([11]; summary of peptide uses): P; Inhibits NFkB translocation [13]: P; Stimulates Migration [14]: P; Restores impaired T-lymphocyte blastogenic response [15]: P |
| H-Leu-Lys-Lys-Thr-Glu-Thr-OH (H-LKKTET-OH) [Peptide 1A] |  |  |  |  |  |  |  | P | U | U | U | U | U | suppress |  |
